Laboratory results reported in paper PMC6072100, “Exploring the links between peptoid antibacterial activity and toxicity” (MedChemComm, 2017).
Read-outs that look alike come from different tables or passages of the source. Square brackets hold non-standard residues; d marks the D form. Peptide text beside a SMILES is read from it. N(4-F-Bzl)Gly = O=C(O)CNCc1ccc(F)cc1; Gly(N-(CH2)6NH2) = NCCCCCCNCC(=O)O; Gly(N-2-aminoethyl) = NCCNCC(=O)O; Nspe = C[C@H](NCC(=O)O)c1ccccc1; Nphe = O=C(O)CNCc1ccccc1; Nlys = NCCCCNCC(=O)O

Columns and labels:
HaCaT cells = experiment: Skin cell toxicity assay with HaCaT (alamarBlue); assay type: cell-based, human
Method in brief: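 HaCaT cells seeded at 2x10^4 per well 24 hours before 1-hour exposure to a 2–100 µM triplicate dilution series in DMEM high glucose with 10% FBS at 37 °C, 5% CO2. Viability assessed with alamarBlue; ED50 defined as dose killing 50% of cells, derived from dose-response data.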

HepG2 cells = experiment: Cytotoxicity assay with HepG2 (alamarBlue); assay type: cell-based, human
Method in brief: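 HepG2 cells (2 × 10^4/well, seeded 1 day earlier) were exposed to compounds (2–100 μM dilution series, triplicate) for 1 h in reduced volume, then diluted with medium and incubated 24 h at 37 °C. Viability was read by alamarBlue after 2 h (Ex 560/Em 600 nm), and ED50 (dose killing 50% of cells) came from dose-response curves.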

[1] = human, HaCaT cells (keratinocytes), 24 h
[2] = dose that kills 50% of cells, 2–100 μM, 1 h with compound then 24 h, alamarBlue

SMILES | ED50 HaCaT (HaCaT cells; [1]) [µM] | ED50 HepG2 (HepG2 cells; human, HepG2 cells, 24 h) [µM] | also measured
NCCCCCCNCC(=O)N(CC(=O)N(CC(=O)N(CCCCCCN)CC(=O)N(CC(=O)N(CC(=O)N(CCCCCCN)CC(=O)N(CC(=O)N(CC(=O)N(CCCCCCN)CC(=O)N(CC(=O)N(CC(N)=O)Cc1ccccc1)Cc1ccccc1)Cc1ccccc1)Cc1ccccc1)Cc1ccccc1)Cc1ccccc1)Cc1ccccc1)Cc1ccccc1 [Peptoid 1, (NahNpheNphe)4] (H-[Gly(N-(CH2)6NH2)][Nphe][Nphe][Gly(N-(CH2)6NH2)][Nphe][Nphe][Gly(N-(CH2)6NH2)][Nphe][Nphe][Gly(N-(CH2)6NH2)][Nphe][Nphe]-NH2) | >100 | >100 | 
NCCCCCCNCC(=O)N(CC(=O)N(CC(=O)N(CCCCCCN)CC(=O)N(CC(=O)N(CC(=O)N(CCCCCCN)CC(=O)N(CC(=O)N(CC(N)=O)Cc1ccccc1)Cc1ccccc1)Cc1ccccc1)Cc1ccccc1)Cc1ccccc1)Cc1ccccc1 [Peptoid 2, (NahNpheNphe)3] (H-[Gly(N-(CH2)6NH2)][Nphe][Nphe][Gly(N-(CH2)6NH2)][Nphe][Nphe][Gly(N-(CH2)6NH2)][Nphe][Nphe]-NH2) | >100 | >100 | 
NCCCCCCNCC(=O)N(CC(=O)N(CC(=O)N(CCCCCCN)CC(=O)N(CC(=O)N(CC(N)=O)Cc1ccccc1)Cc1ccccc1)Cc1ccccc1)Cc1ccccc1 [Peptoid 3, (NahNpheNphe)2] (H-[Gly(N-(CH2)6NH2)][Nphe][Nphe][Gly(N-(CH2)6NH2)][Nphe][Nphe]-NH2) | >100 | >100 | 
NCCCCNCC(=O)N(CC(=O)N(CC(=O)N(CCCCN)CC(=O)N(CC(=O)N(CC(=O)N(CCCCN)CC(=O)N(CC(=O)N(CC(=O)N(CCCCN)CC(=O)N(CC(=O)N(CC(N)=O)Cc1ccccc1)Cc1ccccc1)Cc1ccccc1)Cc1ccccc1)Cc1ccccc1)Cc1ccccc1)Cc1ccccc1)Cc1ccccc1 [Peptoid 4, (NLysNpheNphe)4] (H-[Nlys][Nphe][Nphe][Nlys][Nphe][Nphe][Nlys][Nphe][Nphe][Nlys][Nphe][Nphe]-NH2) |  | >100 | toxicity to HaCaT or HepG2 (in words) (HaCaT cells): negligible toxicity; ED50 HepG2 (HepG2 cells): > 100 µM
NCCCCNCC(=O)N(CC(=O)N(CC(=O)N(CCCCN)CC(=O)N(CC(=O)N(CC(=O)N(CCCCN)CC(=O)N(CC(=O)N(CC(N)=O)Cc1ccccc1)Cc1ccccc1)Cc1ccccc1)Cc1ccccc1)Cc1ccccc1)Cc1ccccc1 [Peptoid 5, (NLysNpheNphe)3] | >100 | >100 | 
NCCCCNCC(=O)N(CC(=O)N(CC(=O)N(CCCCN)CC(=O)N(CC(=O)N(CC(N)=O)Cc1ccccc1)Cc1ccccc1)Cc1ccccc1)Cc1ccccc1 [Peptoid 6, (NLysNpheNphe)2] (H-[Nlys][Nphe][Nphe][Nlys][Nphe][Nphe]-NH2) | >100 | >100 | 
NCCNCC(=O)N(CC(=O)N(CC(=O)N(CCN)CC(=O)N(CC(=O)N(CC(=O)N(CCN)CC(=O)N(CC(=O)N(CC(=O)N(CCN)CC(=O)N(CC(=O)N(CC(N)=O)Cc1ccccc1)Cc1ccccc1)Cc1ccccc1)Cc1ccccc1)Cc1ccccc1)Cc1ccccc1)Cc1ccccc1)Cc1ccccc1 [Peptoid 7, (NaeNpheNphe)4] (H-[Gly(N-2-aminoethyl)][Nphe][Nphe][Gly(N-2-aminoethyl)][Nphe][Nphe][Gly(N-2-aminoethyl)][Nphe][Nphe][Gly(N-2-aminoethyl)][Nphe][Nphe]-NH2) | >100 | >100 | toxicity to HaCaT or HepG2 (in words) (HaCaT cells): negligible toxicity
NCCNCC(=O)N(CC(=O)N(CC(=O)N(CCN)CC(=O)N(CC(=O)N(CC(=O)N(CCN)CC(=O)N(CC(=O)N(CC(N)=O)Cc1ccccc1)Cc1ccccc1)Cc1ccccc1)Cc1ccccc1)Cc1ccccc1)Cc1ccccc1 [Peptoid 8, (NaeNpheNphe)3] (H-[Gly(N-2-aminoethyl)][Nphe][Nphe][Gly(N-2-aminoethyl)][Nphe][Nphe][Gly(N-2-aminoethyl)][Nphe][Nphe]-NH2) | >100 | >100 | 
NCCNCC(=O)N(CC(=O)N(CC(=O)N(CCN)CC(=O)N(CC(=O)N(CC(N)=O)Cc1ccccc1)Cc1ccccc1)Cc1ccccc1)Cc1ccccc1 [Peptoid 9, (NaeNpheNphe)2] (H-[Gly(N-2-aminoethyl)][Nphe][Nphe][Gly(N-2-aminoethyl)][Nphe][Nphe]-NH2) | >100 | >100 | 
C[C@@H](c1ccccc1)N(CC(N)=O)C(=O)CN(C(=O)CN(CCCCCCN)C(=O)CN(C(=O)CN(C(=O)CN(CCCCCCN)C(=O)CN(C(=O)CN(C(=O)CNCCCCCCN)[C@@H](C)c1ccccc1)[C@@H](C)c1ccccc1)[C@@H](C)c1ccccc1)[C@@H](C)c1ccccc1)[C@@H](C)c1ccccc1 [Peptoid 11, (NahNspeNspe)3] (H-[Gly(N-(CH2)6NH2)][Nspe][Nspe][Gly(N-(CH2)6NH2)][Nspe][Nspe][Gly(N-(CH2)6NH2)][Nspe][Nspe]-NH2) | >100 | >100 | 
C[C@@H](c1ccccc1)N(CC(N)=O)C(=O)CN(C(=O)CN(CCCCCCN)C(=O)CN(C(=O)CN(C(=O)CNCCCCCCN)[C@@H](C)c1ccccc1)[C@@H](C)c1ccccc1)[C@@H](C)c1ccccc1 [Peptoid 12, (NahNspeNspe)2] | >100 | >100 | 
C[C@@H](c1ccccc1)N(CC(N)=O)C(=O)CN(C(=O)CN(CCCCN)C(=O)CN(C(=O)CN(C(=O)CN(CCCCN)C(=O)CN(C(=O)CN(C(=O)CN(CCCCN)C(=O)CN(C(=O)CN(C(=O)CNCCCCN)[C@@H](C)c1ccccc1)[C@@H](C)c1ccccc1)[C@@H](C)c1ccccc1)[C@@H](C)c1ccccc1)[C@@H](C)c1ccccc1)[C@@H](C)c1ccccc1)[C@@H](C)c1ccccc1 [Peptoid 13, (NLysNspeNspe)4] (H-[Nlys][Nspe][Nspe][Nlys][Nspe][Nspe][Nlys][Nspe][Nspe][Nlys][Nspe][Nspe]-NH2) |  |  | ED50 HaCaT (HaCaT cells; [2]): 20 µM; ED50 HepG2 (HepG2 cells; [2]): 29 µM
C[C@@H](c1ccccc1)N(CC(N)=O)C(=O)CN(C(=O)CN(CCCCN)C(=O)CN(C(=O)CN(C(=O)CN(CCCCN)C(=O)CN(C(=O)CN(C(=O)CNCCCCN)[C@@H](C)c1ccccc1)[C@@H](C)c1ccccc1)[C@@H](C)c1ccccc1)[C@@H](C)c1ccccc1)[C@@H](C)c1ccccc1 [Peptoid 14, (NLysNspeNspe)3] (H-[Nlys][Nspe][Nspe][Nlys][Nspe][Nspe][Nlys][Nspe][Nspe]-NH2) |  |  | ED50 HaCaT (HaCaT cells; [2]): >100 µM; ED50 HepG2 (HepG2 cells; [2]): >100 µM
C[C@@H](c1ccccc1)N(CC(N)=O)C(=O)CN(C(=O)CN(CCCCN)C(=O)CN(C(=O)CN(C(=O)CNCCCCN)[C@@H](C)c1ccccc1)[C@@H](C)c1ccccc1)[C@@H](C)c1ccccc1 [Peptoid 15, (NLysNspeNspe)2] (H-[Nlys][Nspe][Nspe][Nlys][Nspe][Nspe]-NH2) | >100 | >100 | 
C[C@@H](c1ccccc1)N(CC(N)=O)C(=O)CN(C(=O)CN(CCN)C(=O)CN(C(=O)CN(C(=O)CN(CCN)C(=O)CN(C(=O)CN(C(=O)CNCCN)[C@@H](C)c1ccccc1)[C@@H](C)c1ccccc1)[C@@H](C)c1ccccc1)[C@@H](C)c1ccccc1)[C@@H](C)c1ccccc1 [Peptoid 17, (NaeNspeNspe)3] |  |  | ED50 HaCaT (HaCaT cells; [2]): >100 µM; ED50 HepG2 (HepG2 cells; [2]): >100 µM
C[C@@H](c1ccccc1)N(CC(N)=O)C(=O)CN(C(=O)CN(CCN)C(=O)CN(C(=O)CN(C(=O)CNCCN)[C@@H](C)c1ccccc1)[C@@H](C)c1ccccc1)[C@@H](C)c1ccccc1 [Peptoid 18, (NaeNspeNspe)2] | >100 | >100 | 
COc1ccc(CN(CC(N)=O)C(=O)CN(Cc2ccc(OC)cc2)C(=O)CN(CCCCN)C(=O)CN(Cc2ccc(OC)cc2)C(=O)CN(Cc2ccc(OC)cc2)C(=O)CN(CCCCN)C(=O)CN(Cc2ccc(OC)cc2)C(=O)CN(Cc2ccc(OC)cc2)C(=O)CN(CCCCN)C(=O)CN(Cc2ccc(OC)cc2)C(=O)CN(Cc2ccc(OC)cc2)C(=O)CNCCCCN)cc1 [Peptoid 19, (NLysNpmbNpmb)4] |  | >100 | 
NCCCCNCC(=O)N(CC(=O)N(CC(=O)N(CCCCN)CC(=O)N(CC(=O)N(CC(=O)N(CCCCN)CC(=O)N(CC(=O)N(CC(=O)N(CCCCN)CC(=O)N(CC(=O)N(CC(N)=O)Cc1ccc(F)cc1)Cc1ccc(F)cc1)Cc1ccc(F)cc1)Cc1ccc(F)cc1)Cc1ccc(F)cc1)Cc1ccc(F)cc1)Cc1ccc(F)cc1)Cc1ccc(F)cc1 [Peptoid 22, (NLysNpfbNpfb)4] (H-[Nlys][N(4-F-Bzl)Gly][N(4-F-Bzl)Gly][Nlys][N(4-F-Bzl)Gly][N(4-F-Bzl)Gly][Nlys][N(4-F-Bzl)Gly][N(4-F-Bzl)Gly][Nlys][N(4-F-Bzl)Gly][N(4-F-Bzl)Gly]-NH2) |  |  | ED50 HaCaT (HaCaT cells): 46 µM; ED50 HepG2 (HepG2 cells): 30 µM
NCCCCNCC(=O)N(CC(=O)N(CC(=O)N(CCCCN)CC(=O)N(CC(=O)N(CC(=O)N(CCCCN)CC(=O)N(CC(=O)N(CC(N)=O)Cc1ccc(F)cc1)Cc1ccc(F)cc1)Cc1ccc(F)cc1)Cc1ccc(F)cc1)Cc1ccc(F)cc1)Cc1ccc(F)cc1 [Peptoid 23, (NLysNpfbNpfb)3] (H-[Nlys][N(4-F-Bzl)Gly][N(4-F-Bzl)Gly][Nlys][N(4-F-Bzl)Gly][N(4-F-Bzl)Gly][Nlys][N(4-F-Bzl)Gly][N(4-F-Bzl)Gly]-NH2) | >100 |  | toxicity to HaCaT or HepG2 (in words) (HaCaT cells): negligible toxicity
C[C@@H](c1ccccc1)N(CC(N)=O)C(=O)CN(C(=O)CN(CCCCN)C(=O)CN(Cc1ccc(F)cc1)C(=O)CN(Cc1ccc(F)cc1)C(=O)CN(CCCCN)C(=O)CN(C(=O)CN(C(=O)CN(CCCCN)C(=O)CN(Cc1ccc(F)cc1)C(=O)CN(Cc1ccc(F)cc1)C(=O)CNCCCCN)[C@@H](C)c1ccccc1)[C@@H](C)c1ccccc1)[C@@H](C)c1ccccc1 [Peptoid 28, [(NLysNpfbNpfb)(NLysNspeNspe)]2] | >100 |  | toxicity to HaCaT or HepG2 (in words) (HaCaT cells): negligible toxicity; ED50 HepG2 (HepG2 cells): 55 µM
